Experimental data taken from patent US9040523B2, “Antifungal 5,6-dihydro-4H-pyrrolo[1,2-α][1,4]-benzodiazepines and 6H-pyrrolo[1,2-α][1,4]benzodiazepines substituted with benzene derivatives” (JANSSEN PHARMACEUTICA NV, priority 2010, dated 2015).

How the values were obtained:
[1] = target: Cytochrome P450 2D6 (Homo sapiens, UniProt P10635); assay: Human liver microsomal cytochrome P450 cocktail inhibition assay, Protocol C; details: 2D6_Dextro pIC50, human liver microsomes 0.2 mg/ml; probe dextromethorphan 3 microM
Experimental: (§1) Probe substrates and final assay concentrations with the appropriate internal standard are outlined in Table 6a.
(§2) Assays were performed in 0.1 M phosphate buffer (pH 7.4), containing 0.2 mg/ml human liver microsomes (BD Gentest) and a probe substrate mix consisting of: phenacetin, tolbutamide, S-mephenyloin, dextromethorphan, amodiaquine and midazolam (Table 6a) and a range of test compound concentrations (0 to 30 micromolar) in a total volume of 100 microliters. After a 10 min pre-incubation at 37° C., the reaction was started with addition of NADPH at a final concentration of 1.0 mM. […] The samples are centrifuged for 10 min at 4° C. at 4000 rpm and 60 microliters supernatant is diluted with 180 microliters water. Each sample is injected onto a UPLC/MS system for the simultaneous measurement of the probe substrate metabolites and their associated deuterated internal standards. Percentage inhibition is calculated according to: %-inhibition=(1−Ri/R)*100, whereby Ri and R are the metabolite to internal standard peak area ratios in the presence and absence of inhibitor respectively.
(§3) Percentage inhibition data are plotted against the Log transformed test compound concentration and after curve fitting the IC50-value is determined.

[2] = target: T1, Cytochrome P450 1A2 (Homo sapiens, UniProt P05177); assay: as above
T1 sequence (P05177 1-516): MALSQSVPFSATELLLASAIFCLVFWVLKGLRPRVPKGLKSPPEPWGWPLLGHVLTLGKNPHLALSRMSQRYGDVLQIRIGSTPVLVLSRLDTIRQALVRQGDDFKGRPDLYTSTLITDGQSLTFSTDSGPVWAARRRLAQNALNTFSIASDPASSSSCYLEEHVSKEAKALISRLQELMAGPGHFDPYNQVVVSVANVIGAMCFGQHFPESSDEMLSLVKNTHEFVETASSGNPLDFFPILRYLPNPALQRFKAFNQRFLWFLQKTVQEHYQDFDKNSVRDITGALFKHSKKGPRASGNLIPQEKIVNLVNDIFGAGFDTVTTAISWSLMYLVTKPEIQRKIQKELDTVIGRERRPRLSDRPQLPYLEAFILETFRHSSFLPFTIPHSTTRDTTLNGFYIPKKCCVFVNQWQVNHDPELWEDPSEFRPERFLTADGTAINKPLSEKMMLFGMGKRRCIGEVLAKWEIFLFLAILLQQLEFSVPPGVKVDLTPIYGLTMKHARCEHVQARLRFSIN
Experimental: as §1, §2, §3

[3] = target: Cytochrome P450 2C9 (Homo sapiens, UniProt P11712); assay: as above; details: 2C9 Tolbut pIC50, human liver microsomes 0.2 mg/ml; probe tolbutamide 100 microM
Experimental: as §1, §2, §3

[4] = target: Cytochrome P450 2C19 (Homo sapiens, UniProt P33261); assay: as above; details: 2C19_S-Meph pIC50, human liver microsomes 0.2 mg/ml; probe S-mephenytoin 30 microM
Experimental: as §1, §2, §3

[5] = system: Sporothrix schenkii B62482; assay: Antifungal activity in vitro (resazurin susceptibility screen), Inf. A; assay type: cell-based; details: Sporothrix, B62482, Sporothrix schenkii B62482; 27 °C, 4 days, resa time 24 hours; highest in-test concentration 64 μM; read-out: Inf. A pIC50 (converted)
Experimental: (§4) The standard susceptibility screen was performed in 96-well plates (U-bottom, Greiner Bio-One). […] These serial dilutions (10 n1) were then spotted onto test-plates that could be stored in the dark at 4° C. for a maximum period of 2 weeks. […] The different fungal species/isolates (Table 3a) were cryopreserved and 1/1000 diluted in medium just prior to use. A standard inoculum of 200 μl containing 10^3 colony-forming unit (cfu) was then added to each well. A positive control (100% growth=fungal culture without antifungal) and a negative control (0% growth ═RPMI-MOPS medium) were included on each plate. […] [table]

[6] = system: Trichophyton mentagrophytes B70554; assay: Antifungal activity in vitro (resazurin susceptibility screen), Inf. G; assay type: cell-based; details: Trichophyton mentagrophytes, B70554, Trichophyton mentagrophytes B70554; 27 °C, 7 days, resa time 24 hours; read-out: Inf. G pIC50 (converted)
Experimental: (§5) The standard susceptibility screen was performed in 96-well plates (U-bottom, Greiner Bio-One). […] These serial dilutions (10 n1) were then spotted onto test-plates that could be stored in the dark at 4° C. for a maximum period of 2 weeks. […] A standard inoculum of 200 μl containing 10^3 colony-forming unit (cfu) was then added to each well. A positive control (100% growth=fungal culture without antifungal) and a negative control (0% growth ═RPMI-MOPS medium) were included on each plate.

[7] = target: CYP3A4 (Homo sapiens, UniProt P08684); assay: Cytochrome P450 inhibition, Protocol A, cDNA expressed proteins, fluorogenic substrates; assay type: in vitro ADME
Experimental: (§6) All fluorogenic based assays were performed in Black Costar 96-well plates according to Crespi et al 1997 with minor modifications (Crespi C L, Miller V P & Penman B W (1997). Microtiter plate assays for inhibition of human, drug-metabolizing cytochromes P450. Anal. Biochem. Vol 248, 1898-1900). Assay conditions are outlined in Table 5a. For cytochrome P450 3A4, three different fluorogenic substrates were used. Each reaction mixture consisted of the appropriate concentration of enzyme, NADPH-generating system (“NADPH” means β-nicotinamide adenine dinucleotide phosphate, reduced), substrate in sodium/potassium buffer (pH 7.4). For each cytochrome P450 batch Michealis-Menten kinetics were determined using 11 concentrations.
(§7) Thereafter, further dilutions were made in acetonitrile. […] The compounds were serially diluted to give final concentrations ranging from 1 nM to 10 μM. The reaction mixtures, whereby 1 μL of buffer was replaced by compound solution, were pre-warmed for 5 min at 37° C. and the reaction was initiated by the addition of β-nicotinamide adenine dinucleotide phosphate (NADP+). Reactions were terminated by addition of stopping reagent and the fluorescence was measured using a Fluoroscan (Labsystems, Brussel, Belgium).
(§8) In Table 5a, the following abbreviations were used: 3-cyano-7-ethocycoumarin (CEC), 7-methoxy-4-trifluoromethylcoumarin (MFC), 3-[2-(N,N-diethyl-N-methylamino)ethyl]-7-methoxy-4-methylcoumarin (AMMC), 7-benzyloxy-trifluoromethyl coumarin (BFC), 7-benzyloxyquinoline (BQ) and dibenzyl fluorescein (DBF).

[8] = target: CYP2D6 (Homo sapiens, UniProt P10635); assay: Cytochrome P450 inhibition, Protocol A, cDNA expressed proteins, fluorogenic substrate; assay type: in vitro ADME
Experimental: as §6, §7, §8

[9] = target: T2, CYP1A2 (Homo sapiens, UniProt P05177); assay: as above; assay type: in vitro ADME
T2 sequence (P05177 1-516): T1 sequence (P05177 1-516)
Experimental: as §6, §7, §8

[10] = target: CYP2C9 (Homo sapiens, UniProt P11712); assay: as above; assay type: in vitro ADME
Experimental: as §6, §7, §8

[11] = Liver metabolic stability assay, gpLM; assay type: in vitro ADME, guinea pig
Experimental: (§9) Liver preparations (microsomal fractions) were obtained from BD Gentest (San Jose, Calif., US). Metabolic stability was assessed using the following assay conditions. […] The mixture was pre-incubated at 37° C. for 5 min and the enzymatic reaction was started by addition of 5 μM test compound. After 0 (control) and 15 minutes (min), the reactions were terminated by addition of […] (500 μl). The precipitated material was removed by centrifugation at 1200 g for 10 min. The supernatant was analysed by LC-MS/MS on a ThermoFinnigan LCQ Deca XP ion-trap mass spectrometer equipped with an atmospheric pressure chemical ionisation source. Calculation of %-compound remaining was as described by Kantharaj et al. 2003 ((Kantharaj E., Tuytelaars A, Proost P E A, Ongel Z, van […] (2003). Simultaneous measurement of drug metabolic stability and identification of metabolites using ion-trap mass spectrometry.

[12] = system: Candida parapsilosis B66126; assay: Antifungal activity in vitro (resazurin susceptibility screen), Inf. D; assay type: cell-based; details: Lodderomyces parapsilosis; Candida parapsilosis B66126; 37 °C, 24 hours, resa time 4 hours; read-out: Inf. D pIC50 (converted)
Experimental: as §5

[13] = system: Cryptococcus neoformans B66663; assay: Antifungal activity in vitro (resazurin susceptibility screen), Inf. F; assay type: cell-based; details: Cryptococcus neoformans, B66663, Cryptococcus neoformans B66663; 37 °C, 24 hours, resa time 4 hours; read-out: Inf. F pIC50 (converted)
Experimental: as §4

[14] = system: Trichophyton rubrum B68183; assay: Antifungal activity in vitro (resazurin susceptibility screen), Inf. C; assay type: cell-based; details: Trichophyton rubrum B68183; 27 °C, 7 days, resa time 24 hours; read-out: Inf. C pIC50 (converted)
Experimental: as §4

[15] = system: Microsporum canis B68128; assay: Antifungal activity in vitro (resazurin susceptibility screen), Inf. B; assay type: cell-based; details: Microsporum canis, B68128, Microsporum canis B68128; 27 °C, 9 days, resa time 24 hours; read-out: Inf. B pIC50 (converted)
Experimental: as §5

[16] = system: Aspergillus fumigatus B42928; assay: Antifungal activity in vitro (resazurin susceptibility screen), Inf. E; assay type: cell-based; details: Aspergillus fumigatus B42928; 27 °C, 48 hours, resa time 17 hours; read-out: Inf. E pIC50 (converted)
Experimental: as §4

[17] = Liver metabolic stability assay, hLM; assay type: in vitro ADME, human
Experimental: as §9

[18] = target: T3, Cytochrome P450 2C8 (Homo sapiens, UniProt P10632); assay: Human liver microsomal cytochrome P450 cocktail inhibition assay, Protocol C; assay type: in vitro ADME; details: human liver microsomes 0.2 mg/ml; probe amodiaquine 2 microM; read-out: 2C8_Amod pIC50 (converted)
T3 construct: tissue BD Gentest; host or cells: human liver microsomes
T3 sequence (P10632 1-490): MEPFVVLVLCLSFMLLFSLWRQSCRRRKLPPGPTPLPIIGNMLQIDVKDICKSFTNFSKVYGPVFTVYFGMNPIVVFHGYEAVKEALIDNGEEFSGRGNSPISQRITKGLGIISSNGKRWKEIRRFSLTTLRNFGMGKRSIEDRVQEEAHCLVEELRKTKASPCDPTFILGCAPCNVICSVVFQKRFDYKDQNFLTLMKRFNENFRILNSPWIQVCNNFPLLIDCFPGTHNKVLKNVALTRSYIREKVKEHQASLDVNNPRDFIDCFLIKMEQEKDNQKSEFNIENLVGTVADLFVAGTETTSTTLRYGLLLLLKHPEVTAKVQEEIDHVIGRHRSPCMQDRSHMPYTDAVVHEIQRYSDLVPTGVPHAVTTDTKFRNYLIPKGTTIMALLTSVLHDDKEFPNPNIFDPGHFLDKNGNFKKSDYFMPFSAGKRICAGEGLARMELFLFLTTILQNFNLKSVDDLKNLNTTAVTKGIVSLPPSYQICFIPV
Experimental: as §1, §2, §3

Chain of CYP3A4 (P08684 whole entry): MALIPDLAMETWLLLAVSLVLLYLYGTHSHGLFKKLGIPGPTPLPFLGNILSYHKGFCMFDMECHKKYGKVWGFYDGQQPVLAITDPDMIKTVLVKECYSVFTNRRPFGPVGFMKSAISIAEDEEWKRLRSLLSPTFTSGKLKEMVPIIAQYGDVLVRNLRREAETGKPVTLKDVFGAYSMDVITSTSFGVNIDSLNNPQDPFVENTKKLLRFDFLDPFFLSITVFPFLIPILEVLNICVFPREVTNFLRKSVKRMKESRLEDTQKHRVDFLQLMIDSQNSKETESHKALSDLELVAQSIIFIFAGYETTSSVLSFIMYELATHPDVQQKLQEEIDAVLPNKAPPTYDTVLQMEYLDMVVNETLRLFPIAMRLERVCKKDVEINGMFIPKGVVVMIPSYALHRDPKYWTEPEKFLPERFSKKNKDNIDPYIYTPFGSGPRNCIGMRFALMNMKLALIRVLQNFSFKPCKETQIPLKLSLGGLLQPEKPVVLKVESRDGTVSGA
Chain of Cytochrome P450 2C19 (P33261 whole entry): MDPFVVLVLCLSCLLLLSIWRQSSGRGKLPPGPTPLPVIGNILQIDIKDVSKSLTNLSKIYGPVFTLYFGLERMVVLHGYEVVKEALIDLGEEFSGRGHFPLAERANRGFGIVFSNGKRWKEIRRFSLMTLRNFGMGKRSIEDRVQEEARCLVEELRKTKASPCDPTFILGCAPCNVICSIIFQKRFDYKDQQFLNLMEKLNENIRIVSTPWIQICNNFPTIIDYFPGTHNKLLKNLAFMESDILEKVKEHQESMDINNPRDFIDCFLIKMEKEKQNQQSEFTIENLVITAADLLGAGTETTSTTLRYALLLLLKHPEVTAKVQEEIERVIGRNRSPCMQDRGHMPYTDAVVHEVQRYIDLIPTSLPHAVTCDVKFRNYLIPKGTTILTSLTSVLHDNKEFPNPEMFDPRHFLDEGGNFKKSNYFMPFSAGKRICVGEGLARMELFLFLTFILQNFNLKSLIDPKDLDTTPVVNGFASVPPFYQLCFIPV
Chain of Cytochrome P450 2C9 (P11712 whole entry): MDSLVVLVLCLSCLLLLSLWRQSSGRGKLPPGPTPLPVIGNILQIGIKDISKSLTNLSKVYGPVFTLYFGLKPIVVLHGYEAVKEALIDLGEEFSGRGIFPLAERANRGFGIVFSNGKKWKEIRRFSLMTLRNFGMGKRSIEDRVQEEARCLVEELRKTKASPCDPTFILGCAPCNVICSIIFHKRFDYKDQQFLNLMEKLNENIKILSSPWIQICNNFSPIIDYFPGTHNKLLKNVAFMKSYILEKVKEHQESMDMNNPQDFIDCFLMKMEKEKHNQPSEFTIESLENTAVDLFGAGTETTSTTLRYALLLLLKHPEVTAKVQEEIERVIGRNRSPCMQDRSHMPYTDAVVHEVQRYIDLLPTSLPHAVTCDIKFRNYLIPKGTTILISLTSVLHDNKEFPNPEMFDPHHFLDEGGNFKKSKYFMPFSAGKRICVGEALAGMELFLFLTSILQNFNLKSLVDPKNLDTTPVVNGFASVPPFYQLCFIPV
Chain of CYP2C9 (P11712 whole entry): as above
Chain of CYP2D6 (P10635 whole entry): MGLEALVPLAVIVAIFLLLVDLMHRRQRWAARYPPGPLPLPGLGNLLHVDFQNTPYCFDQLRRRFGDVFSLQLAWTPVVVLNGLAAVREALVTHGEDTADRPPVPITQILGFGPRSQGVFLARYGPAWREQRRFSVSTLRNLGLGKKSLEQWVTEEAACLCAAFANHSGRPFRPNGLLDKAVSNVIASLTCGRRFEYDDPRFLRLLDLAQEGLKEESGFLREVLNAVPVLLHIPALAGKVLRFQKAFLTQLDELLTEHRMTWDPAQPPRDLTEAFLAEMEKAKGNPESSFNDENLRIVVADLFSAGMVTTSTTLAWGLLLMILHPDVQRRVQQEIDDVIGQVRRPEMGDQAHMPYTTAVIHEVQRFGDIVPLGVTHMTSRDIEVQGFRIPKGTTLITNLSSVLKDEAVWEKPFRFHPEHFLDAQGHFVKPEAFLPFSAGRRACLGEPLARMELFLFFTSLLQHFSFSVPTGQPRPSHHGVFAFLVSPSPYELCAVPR
Chain of Cytochrome P450 2D6 (P10635 whole entry): as above

SMILES | IC50 [1] [µM] | IC50 [2] [µM] | IC50 [3] [µM] | IC50 [4] [µM] | IC50 [5] [µM] | IC50 [6] [µM] | IC50 [12] [µM] | IC50 [13] [µM] | IC50 [14] [µM] | IC50 [15] [µM] | IC50 [16] [µM] | further results
CCc1cccc(C2NCc3c(Cl)cccc3-n3cccc32)c1 (stereo not shown) | 2 | > 10 | 6.31 | 1.26 |  |  |  |  |  |  |  | 
CC(=O)c1cc(C2NCc3c(Cl)cc(Cl)cc3-n3cccc32)ccc1F (stereo not shown) [Compound 13, 1-[5-(7,9-dichloro-5,6-dihydro-4H-pyrrolo[1,2-a][1,4]benzodiazepin-4-yl)-2-fluorophenyl]-ethanone] |  |  |  |  | > 63.1 | > 63.1 | > 63.1 | > 63.1 | 2 | 7.94 | > 63.1 | hCYP3A4_BFC_Pct_Inh ([7]; human, 10 μM, pH 7.4): 81%; hCYP3A4_BQ_Pct_Inh ([7]; human, 10 μM, pH 7.4): 78%; hCYP3A4_DBF_Pct_Inh ([7]; human, 10 μM, pH 7.4): 91%; hCYP2D6_AMMC_Pct_Inh ([8]; human, 10 μM, pH 7.4): 51%; hCYP1A2_CEC_Pct_Inh ([9]; human, 10 μM, pH 7.4): 64%; hCYP2C9_MFC_Pct_Inh ([10]; human, 10 μM, pH 7.4): 61%; %-compound metabolised Met_gpLM ([11]; guinea pig, microsomes, 0.25 h, 5 μM, pH 7.4): 95%; %-compound metabolised_Met_hLM ([17]; human, microsomes, 0.25 h, 5 μM, pH 7.4): 69%
CC(=O)c1cc(C2=NCc3c(Cl)cc(Cl)cc3-n3cccc32)ccc1F [Compound 23, 1-[5-(7,9-dichloro-6H-pyrrolo[1,2-a][1,4]benzodiazepin-4-yl)-2-fluorophenyl]-ethanone] |  |  |  |  | > 63.1 | > 63.1 | > 63.1 | > 63.1 | > 63.1 | > 63.1 | > 63.1 | hCYP3A4_BFC_Pct_Inh ([7]; % inhibition at 10 μM, substrate BFC, cDNA expressed protein): 51%; hCYP3A4_BQ_Pct_Inh ([7]; % inhibition at 10 μM, substrate BQ, cDNA expressed protein): 56%; hCYP3A4_DBF_Pct_Inh ([7]; % inhibition at 10 μM, substrate DBF, cDNA expressed protein): 40%; hCYP2D6_AMMC_Pct_Inh ([8]; % inhibition at 10 μM, substrate AMMC, cDNA expressed protein): 3%; hCYP1A2_CEC_Pct_Inh ([9]; % inhibition at 10 μM, substrate CEC, cDNA expressed protein): 17%; hCYP2C9_MFC_Pct_Inh ([10]; % inhibition at 10 μM, substrate MFC, cDNA expressed protein): 51%; %-compound metabolised Met_gpLM ([11]; guinea pig microsomes, 1 mg protein/ml, 5 μM test compound, 15 min, 37 °C): 39%; melting point: 192.3 to 193.4 °C; %-compound metabolised_Met_hLM ([17]; human liver microsomes, 1 mg protein/ml, 5 μM test compound, 15 min, 37 °C): 22%
CC(=O)c1ccc(C2=NCc3c(Cl)cccc3-n3cccc32)cc1 [drawing 91] | > 10 | > 10 | > 10 | > 10 |  |  |  |  |  |  |  | IC50 [18]: > 10 µM
